The values below come from PMC7111291 (European Journal of Medicinal Chemistry, 2020).

Like-named read-outs stand apart in the source and are kept apart here. A value given as a limit tells only on which side of the number the result lay.

Data set [1] relates to wild type HIV-1 (VSVG/HIV-1wt). The experiment in a line: microbe, parasite or virus in culture. It counts as cell-based. Particulars: for EC50: read-out: EC50±SD.
The subject of the next data set is VSVG/HIV-1RT-K103N. The format is cell-based.
A further data set deals with VSVG/HIV-1RT-Y181C. It counts as cell-based.
The subject of the next data set is VSVG/HIV-1RT-Y188L. The format is cell-based. Particulars: for EC50: read-out: EC50±SD.
The next data set concerns VSVG/HIV-1RT-K103N,G190A. It counts as cell-based.
Another data set relates to VSVG/HIV-1RT-K103N,V108I. The format is cell-based.
A further data set has as its target HIV-1 RT Ribonuclease H (Human immunodeficiency virus type 1 group M subtype B, UniProt P04585). Briefly: Ribonuclease H activity detection. It counts as biochemical.
The subject of the next data set is HEK 293T cells. It counts as cell-based, human. Particulars: read-out: CC50±SD, 48 h.
The mark [2] stands for this setting: Human immunodeficiency virus 1, HEK-293T.

One may read the EC50 as the concentration needed to bring the measured effect to its halfway point. As for `O=C1Nc2ccc(Cl)cc2[C@@](C#CC2CC2)(C(F)(F)F)O1` [EFV, efavirenz], the results for the EC50 in data set [1] (setting [2]) and in data set [1] were 0.7 ± 0.2 nM and 1 nM, respectively. For the same molecule, the “Mean change (fold) in EC50 compared to wild type” value with VSVG/HIV-1RT-K103N is given as 0.03 ± 0.003 (27.0) fold; in the data set on VSVG/HIV-1RT-Y181C, 0.002 ± 0.0001 (1.7) fold; in the data set on VSVG/HIV-1RT-Y188L, 0.12 ± 0.03 (124.3) fold; with VSVG/HIV-1RT-K103N,G190A, 0.18 ± 0.01 (183.0) fold; in the data set on VSVG/HIV-1RT-K103N,V108I it was 0.06 ± 0.01 (55.5) fold.

By IC50 is commonly meant the midpoint of a concentration-inhibition curve. The low end stands for inhibition by little substance, the high end for a need for much substance. As for `CCCOn1cc(CC(=O)Nc2ccccc2Cl)c2ccccc21` [Compound 6d, N-(2-Chlorophenyl)-2-(1-propoxy-1H-indol-3-yl)acetamide], the EC50 in data set [1] was 490 nM; in the data set with VSVG/HIV-1RT-Y188L it was more than 10000 nM. For the same molecule, the IC50 at HIV-1 RT Ribonuclease H was more than 100000 nM.

By CC50 is commonly meant the concentration giving 50% cytotoxicity. On to `CCCOn1cc(C(=O)C(=O)Nc2ccncc2Cl)c2ccccc21` [Compound 14, N-(3-Chloropyridin-4-yl)-2-oxo-2-(1-propoxy-1H-indol-3-yl)acetamide], for which, in data set [1], the “infectivity when treated with the compound (percentage in parentheses)” value was >10; (131.6 ± 0.60%) and the EC50 is more than 10000 nM. Moreover, the CC50 in the data set with HEK 293T cells was 20900 ± 5110 nM.

For `CCCOn1cc(C(O)C(=O)Nc2ccncc2Cl)c2ccccc21` (stereo not shown) [Compound 15, N-(3-Chloropyridin-4-yl)-2-hydroxy-2-(1-propoxy-1H-indol-3-yl)acetamide], the 50% effective concentration (EC50) in data set [1] is 2010 ± 60 nM. Further, the CC50 with HEK 293T cells was determined as 19000 ± 2310 nM.

With `Cc1ccnc2c1NC(=O)c1cccnc1N2C1CC1` [NVP, nevirapine, reference compound], the half-maximal effective concentration (EC50) in data set [1] (setting [2]) is 30 ± 3 nM; in data set [1], 20 nM; in the data set on VSVG/HIV-1RT-Y188L, more than 100000 nM.

For the molecule `CCCCOn1cc(CC(=O)Nc2ccncc2Cl)c2ccccc21` [Compound 10i, 2-(1-Butoxy-1H-indol-3-yl)-N-(3-chloropyridin-4-yl)acetamide], the EC50 in data set [1] (setting [2]) is 60 ± 0.5 nM. This molecule yielded an IC50 against HIV-1 RT Ribonuclease H of more than 100000 nM.

For the molecule `CCCOn1cc(CC(=O)Nc2ccncc2Cl)c2ccccc21` [Compound 10f, N-(3-Chloropyridin-4-yl)-2-(1-propoxy-1H-indol-3-yl)acetamide], in data set [1], the EC50 was found to be 70 nM. In addition, the IC50 on HIV-1 RT Ribonuclease H is more than 100000 nM.
